Molecules are shown by their SMILES.

Assay [1] concerns the target Neuronal acetylcholine receptor; alpha2/beta4 (Homo sapiens, UniProt P30926+Q15822). Briefly: Binding affinity against nicotinic acetylcholine receptor alpha2-beta4 using [3H]epibatidine as radioligand expressed in HEK293 cells or tsA cells. Format: cell-based.
Assay [2] concerns the target Neuronal acetylcholine receptor; alpha4/beta2 (Homo sapiens, UniProt P17787+P43681). Briefly: Binding affinity against nicotinic acetylcholine receptor alpha4-beta2 using [3H]epibatidine as radioligand expressed in HEK293 cells or tsA cells. Format: cell-based.
Assay [3] addresses Neuronal acetylcholine receptor; alpha4/beta4 (Homo sapiens, UniProt P30926+P43681). Briefly: Binding affinity against nicotinic acetylcholine receptor alpha4-beta4 using [3H]epibatidine as radioligand expressed in HEK293 cells or tsA cells. It is filed as cell-based.
In assay [4] the target is T1, Neuronal acetylcholine receptor; alpha3/beta4 (Homo sapiens, UniProt P30926+P32297). Briefly: Agonistic potency against nicotinic acetylcholine receptor alpha3-beta4. Format: functional.
T1 sequence (P30926 whole entry): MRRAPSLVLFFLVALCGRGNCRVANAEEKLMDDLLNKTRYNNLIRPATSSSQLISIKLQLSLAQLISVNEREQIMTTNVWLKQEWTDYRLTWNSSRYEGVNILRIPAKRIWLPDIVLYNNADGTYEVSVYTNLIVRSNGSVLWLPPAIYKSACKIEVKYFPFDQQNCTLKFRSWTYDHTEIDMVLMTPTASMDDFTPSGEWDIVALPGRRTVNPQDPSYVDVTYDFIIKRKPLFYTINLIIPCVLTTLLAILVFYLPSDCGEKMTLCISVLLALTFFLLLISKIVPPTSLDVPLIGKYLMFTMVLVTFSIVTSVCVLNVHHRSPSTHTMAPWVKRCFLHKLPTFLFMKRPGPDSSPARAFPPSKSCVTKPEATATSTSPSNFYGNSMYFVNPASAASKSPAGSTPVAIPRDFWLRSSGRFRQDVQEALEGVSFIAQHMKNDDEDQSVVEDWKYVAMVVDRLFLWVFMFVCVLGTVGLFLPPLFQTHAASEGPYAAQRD
T1 sequence (P32297 whole entry): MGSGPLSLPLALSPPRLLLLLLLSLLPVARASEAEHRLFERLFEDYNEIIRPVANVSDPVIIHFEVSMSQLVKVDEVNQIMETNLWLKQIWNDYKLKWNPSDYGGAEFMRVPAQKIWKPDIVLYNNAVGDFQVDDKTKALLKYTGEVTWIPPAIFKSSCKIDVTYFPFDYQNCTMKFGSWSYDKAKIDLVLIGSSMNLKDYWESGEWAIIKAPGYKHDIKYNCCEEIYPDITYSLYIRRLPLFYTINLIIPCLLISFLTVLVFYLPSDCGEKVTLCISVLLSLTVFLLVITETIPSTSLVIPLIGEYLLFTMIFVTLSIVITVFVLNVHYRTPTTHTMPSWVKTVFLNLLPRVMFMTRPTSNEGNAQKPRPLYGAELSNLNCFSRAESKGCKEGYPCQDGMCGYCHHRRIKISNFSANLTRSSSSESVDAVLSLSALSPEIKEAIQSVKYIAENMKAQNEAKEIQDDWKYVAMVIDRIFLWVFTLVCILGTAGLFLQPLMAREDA
Assay [5] has as its target T1, Neuronal acetylcholine receptor; alpha3/beta4. Briefly: Binding affinity against nicotinic acetylcholine receptor alpha3-beta4 using [3H]epibatidine as radioligand expressed in HEK293 cells or tsA cells. It is filed as cell-based.
For assay [6], the target named is Neuronal acetylcholine receptor. Briefly: Binding affinity against nicotinic acetylcholine receptor using [3H]epibatidine as radioligand in rat brain tissue. Format: tissue-based.

Neuronal acetylcholine receptor; alpha2/beta4, sequence (P30926 whole entry): as the sequence (P30926 whole entry) above
Neuronal acetylcholine receptor; alpha2/beta4, sequence (Q15822 whole entry): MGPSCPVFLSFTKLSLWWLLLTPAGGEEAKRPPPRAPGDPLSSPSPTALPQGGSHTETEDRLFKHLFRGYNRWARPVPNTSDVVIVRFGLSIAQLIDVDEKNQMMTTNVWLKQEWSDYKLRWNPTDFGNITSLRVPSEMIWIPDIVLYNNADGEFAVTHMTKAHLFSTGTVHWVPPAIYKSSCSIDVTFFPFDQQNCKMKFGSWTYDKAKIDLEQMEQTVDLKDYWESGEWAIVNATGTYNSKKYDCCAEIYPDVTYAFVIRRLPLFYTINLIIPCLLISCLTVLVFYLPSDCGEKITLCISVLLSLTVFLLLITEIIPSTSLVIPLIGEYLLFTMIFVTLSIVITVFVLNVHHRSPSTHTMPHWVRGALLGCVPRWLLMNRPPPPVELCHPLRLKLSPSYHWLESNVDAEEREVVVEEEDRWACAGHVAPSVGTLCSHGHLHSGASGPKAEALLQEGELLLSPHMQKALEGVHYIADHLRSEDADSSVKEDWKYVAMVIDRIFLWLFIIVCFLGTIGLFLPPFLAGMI
Neuronal acetylcholine receptor; alpha4/beta4, sequence (P30926 whole entry): as the sequence (P30926 whole entry) above
Neuronal acetylcholine receptor; alpha4/beta4, sequence (P43681 whole entry): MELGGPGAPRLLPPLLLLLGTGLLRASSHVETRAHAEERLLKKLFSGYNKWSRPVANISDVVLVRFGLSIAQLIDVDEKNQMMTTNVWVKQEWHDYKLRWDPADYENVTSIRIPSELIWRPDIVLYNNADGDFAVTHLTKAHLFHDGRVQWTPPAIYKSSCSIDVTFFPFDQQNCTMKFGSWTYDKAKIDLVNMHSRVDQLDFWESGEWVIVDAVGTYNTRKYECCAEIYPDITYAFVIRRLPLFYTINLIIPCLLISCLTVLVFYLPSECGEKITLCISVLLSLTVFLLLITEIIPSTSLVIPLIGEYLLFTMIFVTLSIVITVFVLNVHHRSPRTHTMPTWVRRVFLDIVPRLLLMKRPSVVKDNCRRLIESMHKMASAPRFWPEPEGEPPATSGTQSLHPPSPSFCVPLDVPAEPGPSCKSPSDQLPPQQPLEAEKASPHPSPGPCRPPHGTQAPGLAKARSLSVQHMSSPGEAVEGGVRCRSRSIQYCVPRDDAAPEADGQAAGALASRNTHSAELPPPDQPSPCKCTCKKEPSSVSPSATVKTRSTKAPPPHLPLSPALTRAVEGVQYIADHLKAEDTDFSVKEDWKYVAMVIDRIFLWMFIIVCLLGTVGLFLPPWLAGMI
Neuronal acetylcholine receptor; alpha4/beta2, sequence (P17787 whole entry): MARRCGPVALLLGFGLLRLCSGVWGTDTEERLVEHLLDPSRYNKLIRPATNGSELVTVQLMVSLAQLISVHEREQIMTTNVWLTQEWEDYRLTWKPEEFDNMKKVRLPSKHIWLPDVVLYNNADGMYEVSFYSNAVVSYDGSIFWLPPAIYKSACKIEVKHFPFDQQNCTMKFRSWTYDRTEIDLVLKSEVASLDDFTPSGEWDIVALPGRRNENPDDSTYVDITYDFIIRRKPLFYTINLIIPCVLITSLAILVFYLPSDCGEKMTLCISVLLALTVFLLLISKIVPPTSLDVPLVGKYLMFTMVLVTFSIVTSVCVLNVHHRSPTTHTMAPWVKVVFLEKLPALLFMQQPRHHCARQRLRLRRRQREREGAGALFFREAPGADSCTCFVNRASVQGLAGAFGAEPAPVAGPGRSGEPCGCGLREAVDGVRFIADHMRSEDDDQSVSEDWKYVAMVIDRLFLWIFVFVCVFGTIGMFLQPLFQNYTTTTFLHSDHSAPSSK
Neuronal acetylcholine receptor; alpha4/beta2, sequence (P43681 whole entry): as the sequence (P43681 whole entry) above

`CN1CCC[C@H]1c1cccnc1` [NICOTINE] showed a Ki in assay [1] of 103 nM.

For `OC1CC2CC(c3ccc(Cl)nc3)C(C1)N2` (stereo not drawn), the Ki in assay [2] is 7.4 nM; in assay [3], 38 nM; in assay [1], 31 nM; in assay [5], 88 nM; in assay [6] it was 18 nM. For the same compound, in assay [4], the response was half-maximal at 2100 nM (EC50).

In assay [1], `Clc1ccc(C2CC3CCC2N3)cn1` (stereo not drawn) [EPIBATIDINE] gave a Ki of 0.091 nM.

A word on the Ki: it is a dissociation constant, usually derived from enzyme kinetics or from competition with a known ligand. The low end stands for tighter binding, the high end for weaker binding. By EC50 is commonly meant the concentration at which the effect is half-maximal. Lower therefore signals greater potency.

(Values after ChEMBL document CHEMBL1146702, “Synthesis and nicotinic receptor activity of a hydroxylated tropane” (Bioorg Med Chem Lett, 2004).)
